DC50 and Dmax data for 13 compounds are collected here from patent US20250206732A1, “COMPOUNDS AND METHODS FOR THE TARGETED DEGRADATION OF KRAS” (Arvinas Operations, Inc., priority 2022, published 2025).

Structures are written as SMILES.

The test concerns the target T1, AsPC-1 HiBiT-KRASG12D (Homo sapiens, UniProt P01116, G12D).
T1 construct: insert the HiBiT tag onto the N-terminus of one or more of the endogenous KRAS alleles; endogenous in cells; host or cells: AsPC-1 (ATCC CRL-1682), CRISPR-Cas9 knock-in clone, one tagged allele
Description: HiBiT degradation assay (G12D), AsPC-1 HiBiT-KRASG12D cells. The test is classed as cell-based. Particulars: 24 hours treatment; for DC50: AsPC-1 HiBiT-KRASG12D cells, HiBiT luminescence; for Dmax: ASPC1, AsPC-1 HiBiT-KRASG12D cells, maximum degradation observed. A digest of the protocol: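 Luminescence read-out of HiBiT-tagged endogenous KRASG12D in AsPC-1 cells after 24 h compound exposure at 37° C; lytic Nano-Glo HiBiT detection, 45 min at room temperature. A parallel alamar blue read (4 h) checked viability, normalized to DMSO-only controls.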

As usually defined, the DC50 is the midpoint of the concentration-degradation curve. A lower DC50 goes with degradation at low concentration. Usually Dmax stands for the largest share of the target that was removed. Higher therefore signals deep degradation.

T1 sequence (P01116 1-188 isoform P01116-2 G12D): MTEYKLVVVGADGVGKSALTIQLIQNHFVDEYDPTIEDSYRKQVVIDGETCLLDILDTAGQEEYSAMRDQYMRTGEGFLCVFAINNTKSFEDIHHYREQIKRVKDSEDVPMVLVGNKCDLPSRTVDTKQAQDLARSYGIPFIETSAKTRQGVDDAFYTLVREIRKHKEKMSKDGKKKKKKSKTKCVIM

As for `CCc1cccc2cc(O)cc(-c3ncc4c(N5CC6CCC(C5)N6)nc(OC[C@@]56CCCN5[C@H](CN5CCN(c7cc([C@@H](C(=O)N8C[C@H](O)C[C@H]8C(=O)N[C@@H](C)c8ccc(-c9scnc9C)cc8)C(C)C)on7)CC5)CC6)nc4c3F)c12` [Compound 95, (2S,4R)-1-[(2S)-2-[3-(4-{[(3S,7aS)-7a-{[(4-{3,8-diazabicyclo[3.2.1]octan-3-yl}-7-(8-ethyl-3-hydroxynaphthalen-1-yl)-8-fluoropyrido[4,3-d]pyrimidin-2-yl)oxy]methyl}-hexahydro-1H-pyrrolizin-3-yl]methyl}piperazin-1-yl)-1,2-oxazol-5-yl]-3-methylbutanoyl]-4-hydroxy-N-[(1S)-1-[4-(4-methyl-1,3-thiazol-5-yl)phenyl]ethyl]pyrrolidine-2-carboxamide], the DC50 is more than 3000 nM.

Compound `C#Cc1c(F)ccc2cc(O)cc(-c3ncc4c(N5CC6CCC(C5)N6)nc(OCCN5CCC(F)(CN6CCN(c7cc([C@H](C(=O)N8C[C@H](O)C[C@H]8C(=O)N[C@@H](C)c8ccc(-c9ccnn9C)cc8)C(C)C)on7)CC6)CC5)nc4c3F)c12` [Compound 198, (2S,4R)-1-[(2R)-2-(3-{4-[(1-{2-[(4-{3,8-diazabicyclo[3.2.1]octan-3-yl}-7-(8-ethynyl-7-fluoro-3-hydroxynaphthalen-1-yl)-8-fluoropyrido[4,3-d]pyrimidin-2-yl)oxy]ethyl}-4-fluoropiperidin-4-yl)methyl]piperazin-1-yl}-1,2-oxazol-5-yl)-3-methylbutanoyl]-4-hydroxy-N-[(1S)-1-[4-(1-methyl-1H-pyrazol-5-yl)phenyl]ethyl]pyrrolidine-2-carboxamide] came in with a Dmax of 80 to 100% and a DC50 of less than 600 nM.

For the compound `CCc1cccc2cc(O)cc(-c3ncc4c(N5CC6CCC(C5)N6)nc(OC[C@]56CCCN5[C@H](COC(=O)N5CCN(c7cc([C@H](C(=O)N8C[C@H](O)C[C@H]8C(=O)N[C@@H](C)c8ccc(-c9scnc9C)cc8)C(C)C)on7)[C@H](C)C5)CC6)nc4c3F)c12` [Compound 130, [(3S,7aR)-7a-{[(4-{3,8-diazabicyclo[3.2.1]octan-3-yl}-7-(8-ethyl-3-hydroxynaphthalen-1-yl)-8-fluoropyrido[4,3-d]pyrimidin-2-yl)oxy]methyl}-hexahydro-1H-pyrrolizin-3-yl]methyl (3R)-4-{5-[(2R)-1-[(2S,4R)-4-hydroxy-2-{[(1S)-1-[4-(4-methyl-1,3-thiazol-5-yl)phenyl]ethyl]carbamoyl}pyrrolidin-1-yl]-3-methyl-1-oxobutan-2-yl]-1,2-oxazol-3-yl}-3-methylpiperazine-1-carboxylate], the Dmax fell in the range of 80 to 100% and the DC50 is less than 600 nM.

With `CCc1cccc2cc(O)cc(-c3ncc4c(N5CC6CCC(C5)N6)nc(OCCN5CCC(CN6CC7(C6)CN(c6cc([C@@H](C(=O)N8C[C@H](O)C[C@H]8C(=O)N[C@@H](C)c8ccc(-c9scnc9C)cc8)C(C)C)on6)C7)CC5)nc4c3F)c12` [Compound 236], the DC50 is more than 3000 nM.

Take `CCc1cccc2cc(O)cc(-c3ncc4c(N5CC6CCC(C5)N6)nc(OC[C@@]56CCCN5[C@H](COC(=O)N5CCN(c7cc([C@H](C(=O)N8C[C@H](O)C[C@H]8C(=O)N[C@@H](C)c8ccc(-c9scnc9C)cc8)C(C)C)on7)C[C@@H]5C)CC6)nc4c3F)c12` [Compound 325, [(3S,8S)-8-[[4-(3,8-diazabicyclo[3.2.1]octan-3-yl)-7-(8-ethyl-3-hydroxy-1-naphthyl)-8-fluoro-pyrido[4,3-d]pyrimidin-2-yl]oxymethyl]-1,2,3,5,6,7-hexahydropyrrolizin-3-yl]methyl (2S)-4-[5-[(1R)-1-[(2S,4R)-4-hydroxy-2-[[(1S)-1-[4-(4-methylthiazol-5-yl)phenyl]ethyl]carbamoyl]pyrrolidine-1-carbonyl]-isobutyl]isoxazol-3-yl]-2-methyl-piperazine-1-carboxylate]: the Dmax was in the range of 80 to 100% and the DC50 is less than 600 nM.

`CCc1cccc2cc(O)cc(-c3ncc4c(N5CC6CCC(C5)N6)nc(OCCN5CCC(CN6CC(Oc7cc([C@@H](C(=O)N8C[C@H](O)C[C@H]8C(=O)N[C@@H](C)c8ccc(-c9scnc9C)cc8)C(C)C)on7)C6)CC5)nc4c3F)c12` [Compound 245] came in with a DC50 of more than 3000 nM.

Take `CCc1cccc2cc(O)cc(-c3ncc4c(N5CC6CCC(C5)N6)nc(OCCN5CCC(N(C)c6cc([C@@H](C(=O)N7C[C@H](O)C[C@H]7C(=O)N[C@@H](C)c7ccc(-c8scnc8C)cc7)C(C)C)on6)CC5)nc4c3F)c12` (relative stereo) [Compound 137, (2S,4R)-1-[(2R*)-2-{3-[(1-{2-[(4-{3,8-diazabicyclo[3.2.1]octan-3-yl}-7-(8-ethyl-3-hydroxynaphthalen-1-yl)-8-fluoropyrido[4,3-d]pyrimidin-2-yl)oxy]ethyl}piperidin-4-yl)(methyl)amino]-1,2-oxazol-5-yl}-3-methylbutanoyl]-4-hydroxy-N-[(1S)-1-[4-(4-methyl-1,3-thiazol-5-yl)phenyl]ethyl]pyrrolidine-2-carboxamide]: the Dmax is 20 to 60% and the DC50 is 1000 to 3000 nM.

In the case of `CCc1cccc2cc(O)cc(-c3ncc4c(N5CC6CCC(C5)N6)nc(OC[C@]56CCCN5[C@H](COC(=O)N5CCN(c7cc([C@H](C(=O)N8C[C@H](O)C[C@H]8C(=O)N[C@@H](C)c8ccc(-c9scnc9C)cc8)C(C)C)on7)C[C@@H]5C)CC6)nc4c3F)c12` [Compound 132, [(3S,7aR)-7a-{[(4-{3,8-diazabicyclo[3.2.1]octan-3-yl}-7-(8-ethyl-3-hydroxynaphthalen-1-yl)-8-fluoropyrido[4,3-d]pyrimidin-2-yl)oxy]methyl}-hexahydro-1H-pyrrolizin-3-yl]methyl (2S)-4-{5-[(2R)-1-[(2S,4R)-4-hydroxy-2-{[(1S)-1-[4-(4-methyl-1,3-thiazol-5-yl)phenyl]ethyl]carbamoyl}pyrrolidin-1-yl]-3-methyl-1-oxobutan-2-yl]-1,2-oxazol-3-yl}-2-methylpiperazine-1-carboxylate], the greatest degradation seen (Dmax) was in the range of 80 to 100% and the DC50 is less than 600 nM.

Consider `CCc1cccc2cc(O)cc(-c3ncc4c(N5CC6CCC(C5)N6)nc(OC[C@@]56CCCN5[C@H](COC(=O)N5CCN(c7cc([C@@H](C(=O)N8C[C@H](O)C[C@H]8C(=O)N[C@@H](C)c8ccc(-c9scnc9C)cc8)C(C)C)on7)[C@H](C)C5)CC6)nc4c3F)c12` [Compound 341, [(3S,8S)-8-[[4-(3,8-diazabicyclo[3.2.1]octan-3-yl)-7-(8-ethyl-3-hydroxy-1-naphthyl)-8-fluoro-pyrido[4,3-d]pyrimidin-2-yl]oxymethyl]-1,2,3,5,6,7-hexahydropyrrolizin-3-yl]methyl (3R)-4-[5-[(1S)-1-[(2S,4R)-4-hydroxy-2-[[(1S)-1-[4-(4-methylthiazol-5-yl)phenyl]ethyl]carbamoyl]pyrrolidine-1-carbonyl]-isobutyl]isoxazol-3-yl]-3-methyl-piperazine-1-carboxylate], for which the DC50 was more than 3000 nM.

`CCc1cccc2cc(O)cc(-c3ncc4c(N5CC6CCC(C5)N6)nc(OC[C@]56CCCN5[C@H](COC(=O)N5CC(Oc7cc([C@@H](C(=O)N8C[C@H](O)C[C@H]8C(=O)N[C@@H](C)c8ccc(-c9scnc9C)cc8)C(C)C)on7)C5)CC6)nc4c3F)c12` [Compound 129, [(3S,7aR)-7a-{[(4-{3,8-diazabicyclo[3.2.1]octan-3-yl}-7-(8-ethyl-3-hydroxynaphthalen-1-yl)-8-fluoropyrido[4,3-d]pyrimidin-2-yl)oxy]methyl}-hexahydro-1H-pyrrolizin-3-yl]methyl 3-({5-[(2S)-1-[(2S,4R)-4-hydroxy-2-{[(1S)-1-[4-(4-methyl-1,3-thiazol-5-yl)phenyl]ethyl]carbamoyl}pyrrolidin-1-yl]-3-methyl-1-oxobutan-2-yl]-1,2-oxazol-3-yl}oxy)azetidine-1-carboxylate]: the Dmax fell in the range of 60 to 80% and the DC50 was less than 600 nM.

`CCc1cccc2cc(O)cc(-c3ncc4c(N5CC6CCC(C5)N6)nc(OC[C@@]56CCCN5[C@H](CN5CCC(F)(COc7cc([C@H](C(=O)N8C[C@H](O)C[C@H]8C(=O)N[C@@H](C)c8ccc(-c9scnc9C)cc8)C(C)C)on7)CC5)CC6)nc4c3F)c12` [Compound 335, (2S,4R)-1-[(2R)-2-[3-[[1-[[(3S,8S)-8-[[4-(3,8-diazabicyclo[3.2.1]octan-3-yl)-7-(8-ethyl-3-hydroxy-1-naphthyl)-8-fluoro-pyrido[4,3-d]pyrimidin-2-yl]oxymethyl]-1,2,3,5,6,7-hexahydropyrrolizin-3-yl]methyl]-4-fluoro-4-piperidyl]methoxy]isoxazol-5-yl]-3-methyl-butanoyl]-4-hydroxy-N-[(1S)-1-[4-(4-methylthiazol-5-yl)phenyl]ethyl]pyrrolidine-2-carboxamide]: the Dmax is 80 to 100% and the DC50 was less than 600 nM.

On to `CCc1cccc2cccc(-c3ncc4c(N5CC6CCC(C5)N6)nc(OC[C@]56CCCN5[C@H](COC(=O)N5CCN(c7cc([C@H](C(=O)N8C[C@H](O)C[C@H]8C(=O)N[C@@H](C)c8ccc(-c9scnc9C)cc8)C(C)C)on7)CC5)CC6)nc4c3F)c12` [Compound 57], for which the Dmax lay within 60 to 80% and the DC50 is less than 600 nM.

In the case of `CCc1cccc2cc(O)cc(-c3ncc4c(N5CCCCCC5)nc(OC[C@]56CCCN5[C@H](COC(=O)N5CC(Oc7cc([C@@H](C(=O)N8C[C@H](O)C[C@H]8C(=O)N[C@@H](C)c8ccc(-c9scnc9C)cc8)C(C)C)on7)C5)CC6)nc4c3F)c12` [Compound 305], the Dmax was in the range of 20 to 60% and the DC50 was 600 to 1000 nM.
